# “And” between values parts separate entries of the source, which are not always exact repeats. Equal values may be shown once. Read-outs that look alike come from different tables or passages of the source.
# B1: Tgase (SEQ ID NO: 1): wild-type Streptomyces mobaraensis transglutaminase, mature form, amino acid sequence SEQ ID NO:1 (protein, listed as Streptomyces mobaraensis)
# chain: DSDDRVTPPAEPLDRMPDPYRPSYGRAETVVNNYIRKWQQVYSHRDGRKQQMTEEQREWLSYGCVGVTWVNSGQYPTNRLAFASFDEDRFKNELKNGRPRSGETRAEFEGRVAKESFDEEKGFQRAREVASVMNRALENAHDESAYLDNLKKELANGNDALRNEDARSPFYSALRNTPSFKERNGGNHDPSRMKAVIYSKHFWSGQDRSSSADKRKYGDPDAFRPAPGTGLVDMSRDRNIPRSPTSPGEGFVNFDYGWFGAQTEADADKTVWTHGNHYHAPNGSLGAMHVYESKFRNWSEGYSDFDRGAYVITFIPKSWNTAPDKVKQGWP
# Experiments:
# Format in all cases: cell-based
# E. coli ATCC 8739 [1] = test: MIC determination, E. coli
# Protocol: (§1) A variant form of Streptomyces mobaraensis transglutaminase having the amino acid sequence depicted in SEQ ID NO:6 was prepared by literature methods with a hexa-his-tag to aid in purification (Javitt, et al. (2017) BMC Biotechnol. 17:23). The cells were grown in shake flasks, lysed by homogenization, and the Tgase variant (SEQ ID NO:6) was isolated from the cell debris by centrifugation. The resulting semi-purified enzyme (clarified lysate) were compared on an SDS-PAGE gel, by spectroscopy, and activity for concentration of active enzyme. The Tgase variant (SEQ ID NO:6) was further purified by affinity column on a Ni-IMAC resin prior to MIC assay. Tgase activity was measured in the examples herein using a colorimetric hydroxamate activity assay (Folk and Cole (1965) J Biol Chemistry 240(7):2951-2960). The enzyme was diluted to a working stock concentration of 2 mg/mL in CAMHB or RPMI media (bacterial or fungal media). This was then 2-fold serial diluted ten times in the appropriate media in a 96-well master plate to generate 2× starting concentrations for MIC testing.
# (§2) Strains were acquired from the American Type Culture Collection (ATCC) (Manassas, VA) and maintained as −80° C. frozen glycerol stocks: S. aureus ATCC 6538, E. coli ATCC 8739, P. aeruginosa ATCC 9027, C. albicans ATCC 10231, and A. brasiliensis ATCC 16404. B. subtilis BGSC 1A1276 was purchased from the Bacillus Genetic Stock Center (BGSC) (Columbus, OH) and maintained as −80° C. frozen glycerol stock. Cation-adjusted Mueller-Hinton broth (CAMHB) at pH 7.3 was used for testing with bacterial species (unless otherwise noted), while RPMI 1640 media buffered with 0.165 M MOPS at pH 7.0 was used for testing with all fungal species.
# For MIC determination, bacterial strains (S. aureus ATCC 6538, E. coli ATCC 8739, P. aeruginosa ATCC 9027) were grown overnight on Tryptic Soy Agar (TSA) plates at 37° C. A few colonies of each strain were collected with a sterile swab and used to make a McFarland 0.5 standard solution (approximately 1×10^8 CFU/mL) in sterile PBS. The McFarland solution was then diluted 1:100 in CAMHB to generate the inoculum, and 50 μL of this inoculum was combined with 50 μL of the 2× test article in a 96-well plate for a final concentration of 1×. All test conditions were performed in duplicate. The bacterial-strain MIC 96-well plates were incubated at 37° C. for 18 to 20 hours. MIC is defined as the lowest concentration of a compound in which no visible growth is observed.
# E. coli ATCC 8739 [2] = test: Growth inhibition of E. coli culture in LB (OD600 / BacTiter-Glo); conditions: for inhibition at 3000 µg/mL / inhibition at 500 µg/mL: Escherichia coli, ATCC8739; for inhibition at 3000 µg/mL / inhibition at 500 µg/mL / growth inhibition / growth inhibition in the presence of 400 μg/mL Tgase SEQ ID NO: 6: E. coli ATCC 8739
# Protocol: (§3) For MIC determination of bacterial cultures, E. coli ATCC 8739, DH5-alpha, DH10-beta, and B. subtilis BGSC 1A1276 was grown overnight (16-18 hours) in LB broth at 37° C. The following day, the cell density of the saturated cultures was calculated using OD600 and cultures were diluted to 10^4 to 10^6 CFU/mL in sterile LB media to generate the inoculum, and 90 μL of the inoculum was combined with 10 μL of serially diluted Tgase SEQ ID NO:1 at a range of 0.0001-0.01 weight percent in the presence or absence of 0.003% lysozyme (100-fold lower than the effective concentration). Growth curves were measured by OD600 on a BioTek® Synergy Plate Reader. Optionally, the following day, a cell viability assay such as BacTiter-Glo™ (Promega®) following manufacturer's protocols) could be used to assess cell viability. A decrease in OD600 or luminescence indicated a decrease in cell viability. Results are presented as a percent reduction in cell count relative to an untreated culture. All test conditions were performed in triplicate.
# E. coli ATCC 8739 was grown overnight in LB broth at 37° C. The following day, the cell density of the saturated cultures was calculated using OD600 and cultures were diluted to 10^4 to 10^6 CFU/mL in sterile LB media to generate the inoculum, and 90 μL of the inoculum was combined with 10 μL of serially diluted Tgase SEQ ID NO:6 at a range of 0.001-0.1 weight percent in the presence or absence of chemical preservatives at concentrations above and below the calculated MIC value. A single concentration (at the MIC) of the chemical preservative and static concentrations of Tgase SEQ ID NO:6 (400 μg/mL, 0.04% w/v) are presented in Table 8 as representative examples. Growth curves were measured by OD600 on a BioTek® Synergy Plate Reader and a cell viability assay (BacTiter-Glo™, Promega®, following manufacturer's protocols) was used to assess cell viability. A decrease in OD600 or luminescence indicated a decrease in cell viability. Results are presented as a percent reduction in cell count relative to an untreated culture. […]
# [3] = system: A. brasiliensis ATCC 16404; test: MIC determination, A. brasiliensis; conditions: RPMI 1640 pH 7.0, 25° C., up to 7 days, duplicate
# Protocol: as §1, with “testing. […]” for “testing.”
# (§4) C. albicans MIC 96-well plate was incubated for 37° C. for 24 to 48 hours. […] After incubation, all 96-well plates were examined visually and on a spectrophotometer at absorbance OD650. […]
# S. aureus ATCC 6538 = test: MIC determination, S. aureus; conditions: CAMHB pH 7.3, 37° C., 18 to 20 hours, duplicate
# Protocol: as §1
# Strains were acquired from the American Type Culture Collection (ATCC) (Manassas, VA) and maintained as −80° C. frozen glycerol stocks: S. aureus ATCC 6538, E. coli ATCC 8739, P. aeruginosa ATCC 9027, C. albicans ATCC 10231, and A. brasiliensis ATCC 16404. […]
# P. aeruginosa ATCC 9027 = test: MIC determination, P. aeruginosa; conditions: CAMHB pH 7.3, 37° C., 18 to 20 hours, duplicate
# Protocol: as §1, §2
# For MIC determination, bacterial strains (S. aureus ATCC 6538, E. coli ATCC 8739, P. aeruginosa ATCC 9027) were grown overnight on Tryptic Soy Agar (TSA) plates at 37° C. A few colonies of each strain were collected with a sterile swab and used to make a McFarland 0.5 standard solution (approximately 1×10^8 CFU/mL) in sterile PBS. […]
# C. albicans ATCC 10231 [4] = test: MIC determination, C. albicans; conditions: RPMI 1640 pH 7.0, 37° C., 24 to 48 hours, duplicate
# Protocol: as §1, with “testing. […]” for “testing.”
# as §4
# B. subtilis BGSC 1A1276 = test: Growth reduction of B. subtilis culture (OD600 / BacTiter-Glo)
# Protocol: as §3
# (§5) Yeast or bacterial starter cultures were grown as described previously. Tgase (SEQ ID NO:6) was added to each culture at 0.001-1 weight percent. The cultures were grown overnight at 30° C.-37° C. and growth curves were measured by a BioTek® Synergy Plate Reader.
# C. albicans ATCC 10231 [5] = test: Growth reduction of C. albicans culture (OD600 / BacTiter-Glo)
# Protocol: For MIC determination of yeast cultures, C. albicans ATCC 10231 was grown overnight (24 hours) in YPD media at 30° C. The following day, the cell density of the saturated cultures was calculated using OD600 and cultures were diluted to 10^4 to 10^6 CFU/mL in sterile YPD media to generate the inoculum, and 90 μL of the inoculum was combined with 10 μL of serially diluted Tgase SEQ ID NO:1 at a range of 0.0001-0.01 weight percent. The cultures were grown overnight at 30° C. and growth curves were measured by OD600 on a BioTek® Synergy Plate Reader. Optionally, the following day, a cell viability assay such as BacTiter-Glo™ (Promega®) following manufacturer's protocols) could be used to assess cell viability. A decrease in OD600 or luminescence indicated a decrease in cell viability. Results are presented as a percent reduction in cell count relative to an untreated culture. All test conditions were performed in triplicate.
# as §5
# [6] = Escherichia coli, ATCC8739, read-out: Concentration (MIC values; single concentration at the MIC of the chemical preservative)
# [7] = CAMHB pH 7.3, 37° C., 18 to 20 hours, duplicate
molecule,measurement,setting,value
"CCCCC(O)CO (centres unmarked) [1,2-hexandiol]",MIC,E. coli ATCC 8739 [1]; [6],3000 µg/mL
same,inhibition at 3000 µg/mL,"E. coli ATCC 8739 [2]; 3,000 μg/mL preservative + 400 μg/mL Tgase SEQ ID NO: 6, read-out: growth inhibition in the presence of 400 μg/mL Tgase SEQ ID NO: 6",99.5%
same,inhibition at 3000 µg/mL,"E. coli ATCC 8739 [2]; 3,000 μg/mL, read-out: growth inhibition",97.9%
"CCCCCCC(O)CO (centres unmarked) [1,2-octandiol]",MIC,E. coli ATCC 8739 [1]; [6],500 µg/mL
same,inhibition at 500 µg/mL,"E. coli ATCC 8739 [2]; 500 μg/mL preservative + 400 μg/mL Tgase SEQ ID NO: 6, read-out: growth inhibition in the presence of 400 μg/mL Tgase SEQ ID NO: 6",99.3%
same,inhibition at 500 µg/mL,"E. coli ATCC 8739 [2]; 500 μg/mL, read-out: growth inhibition",97.8%
"Cn1sccc1=O [MIT, Methylisothiazolinone]",Concentration (MIC values; single concentration at the MIC of the chemical preservative),E. coli ATCC 8739 [1],150 µg/mL
same,growth inhibition,E. coli ATCC 8739 [2]; 150 μg/mL,98.7%
same,growth inhibition in the presence of 400 μg/mL Tgase SEQ ID NO: 6,E. coli ATCC 8739 [2]; 150 μg/mL preservative + 400 μg/mL Tgase SEQ ID NO: 6,99.8%
"O=C([O-])c1ccccc1.[Na+] [Sodium benzoate, sodium benzoate]",MIC,[3],"2,500 μg/mL and 1,250 μg/mL"
same,MIC,S. aureus ATCC 6538,"10,000 μg/mL"
same,Concentration (MIC values; single concentration at the MIC of the chemical preservative),E. coli ATCC 8739 [1],"10,000 μg/mL"
same,MIC,E. coli ATCC 8739 [1]; [7],"10,000 μg/mL"
same,MIC,P. aeruginosa ATCC 9027,"10,000 μg/mL"
same,MIC,C. albicans ATCC 10231 [4],">20,000 μg/mL"
same,growth inhibition,"E. coli ATCC 8739 [2]; 10,000 μg/mL",99.85%
same,growth inhibition in the presence of 400 μg/mL Tgase SEQ ID NO: 6,"E. coli ATCC 8739 [2]; 10,000 μg/mL preservative + 400 μg/mL Tgase SEQ ID NO: 6",99.97%
Benzalkonium chloride,Concentration (MIC values; single concentration at the MIC of the chemical preservative),E. coli ATCC 8739 [1],16 µg/mL
same,MIC,E. coli ATCC 8739 [1]; [7],15.63 µg/mL
same,MIC,P. aeruginosa ATCC 9027,62.5 µg/mL and 31.25 µg/mL
same,MIC,C. albicans ATCC 10231 [4],3.91 µg/mL
same,growth inhibition,E. coli ATCC 8739 [2]; 16 μg/mL,99.7%
same,growth inhibition in the presence of 400 μg/mL Tgase SEQ ID NO: 6,E. coli ATCC 8739 [2]; 16 μg/mL preservative + 400 μg/mL Tgase SEQ ID NO: 6,99.94%
B1,Fold improvement in enzyme efficacy,B. subtilis BGSC 1A1276; Tgase (SEQ ID NO: 1) alone = 1,1
same,growth inhibition (in words),B. subtilis BGSC 1A1276; Tgase alone,partially inhibited
same,Percent Growth Reduction,B. subtilis BGSC 1A1276; enzyme concentration 960 ug/mL,99.17%
same,growth inhibition (in words),"B. subtilis BGSC 1A1276; upon adding a cell membrane disruptor, lysozyme",Full inhibition
same,Fold improvement in enzyme efficacy,"C. albicans ATCC 10231 [5]; C. albicans ATCC 10231, Tgase (SEQ ID NO: 1) = 1",1
same,Percent Growth Reduction,"C. albicans ATCC 10231 [5]; C. albicans ATCC 10231, enzyme concentration 800 ug/mL",83.11%
same,growth inhibition (in words),"C. albicans ATCC 10231 [5]; C. albicans, Tgase alone",partially inhibited
same,growth inhibition,E. coli ATCC 8739 [2]; 960 μg/mL,0.0%
same,antimicrobial activity,"E. coli ATCC 8739 [2]; gram negative E. coli ATCC 8739, DH5-alpha and DH10-beta, under the concentrations evaluated",little or no detectable antimicrobial activity

# Reference: patent US20230329245A1, “COMPOSITIONS AND METHODS OF USE THEREOF” (Curie Co. Inc., priority 2020, published 2023)
